# Patent US20160030407A1, “Method of Treating Inflammatory Lung Disease” (priority 2010, published 2016)
# Values joined by “and” are separate entries in the source; they are usually repeats but may differ in a detail not shown here. Equal values may be shown once. “Also recorded” adds a separate entry of the source. Read-outs that look alike come from different tables or passages of the source.
# Experiments:
# [1] = Single i.v. dose toxicity: hematology; assay type: in vivo, Sprague-Dawley rats
# Excerpt: (§1) On day 15, urine was collected on all surviving animals for urinalysis. The animals were euthanized and bled via cardiac puncture. Blood was collected for hematology, clinical chemistry, and coagulation analysis. Tissues were collected, weighed, and stored in 10% neutral-buffered formalin for possible future analysis.
# [2] = Single i.v. dose toxicity: coagulation (aPTT, PT); assay type: in vivo, Sprague-Dawley rats; settings: for ACTIVE PARTIAL THROMBOPLASTIN TIME: nicotine 0.75 mg/kg single i.v. dose, tartrate
# Excerpt: as §1
# [3] = target: T1, nAChR α7 (Homo sapiens, UniProt P36544); assay: nAChR α7 channel agonist assay (FLIPR); assay type: cell-based; settings: in presence of PNU-120596; maximal stimulation not achieved
# T1 construct: host or cells: CHO cells coexpressing RIC-3
# Method: (§2) Briefly, cells were incubated with […] dye for 30 min at 37° C.
# Therefore, the assay of agonist activity for either Ach or for the test articles was conducted in the presence of the positive allosteric modulator.
# [4] = Physical signs after single i.v. dose (Example 3); assay type: in vivo, Sprague-Dawley rats; settings: rat, nicotine 0.4 mg/kg, anatabine 0.10, 0.75, 1.0 mg/kg, tartrate
# Method: Four aliquots of each dose level formulation were collected and stored at −80° C. The test compound, corresponding dose level, number of animals, and sample collection times for Phase I of the study are shown in Table 3. The test compound, corresponding dose level, number of animals, and sample collection times for Phase II of the study are shown in Table 4. The physical signs of each animal were monitored following administration of the test compound.
# [5] = Single i.v. dose toxicity: body weights and food consumption; assay type: in vivo, Sprague-Dawley rats; settings: for Average Daily Food Consumption per Rat: Nicotine 0.75 mg/kg; for Mean weight increase by day 14: single i.v. 0.75 mg/kg nicotine
# Method: (§3) Body weight and food consumption was measured daily for 14 days. On day 15, urine was collected on all surviving animals. The animals were euthanized and bled via cardiac puncture, and blood was collected for analysis. Tissues were collected, weighed, evaluated for gross abnormalities, and stored in 10% neutral-buffered formalin.
# All animals were observed daily.
# [6] = target: nAChR α3/β4 (Homo sapiens, UniProt P30926+P32297); assay type: cell-based
# Method: as §2
# [7] = target: T2, nAChR α4/β2 (Homo sapiens, UniProt P17787+P43681); assay type: cell-based; settings: for Normalized % Potentiation: with 10 μM Ach, 100% = 10 μM Ach+3 μM epibatidine, 0% = 10 μM Ach
# T2 construct: host or cells: HEK293 cells, transient
# Method: as §2
# [8] = Single i.v. dose toxicity: necropsy observations and organ weights; assay type: in vivo, Sprague-Dawley rats
# Method: as §3, §1
# [9] = 0.75 mg/kg nicotine, female rats, individual animals
# [10] = 0.75 mg/kg nicotine, female rats, individual animals, tartrate
# [11] = 0.75 mg/kg nicotine, male rats, individual animals
# [12] = 0.75 mg/kg nicotine, male rats, individual animals, tartrate
# [13] = 0.75 mg/kg, gender F, group mean
# [14] = 0.75 mg/kg, gender M, group mean
# [15] = Group E: Nicotine 0.75 mg/kg (Females), individual animals, tartrate
# [16] = Group E: Nicotine 0.75 g/kg Males), individual animals, tartrate
# [17] = female animals, Nicotine 0.75 mg/kg, n = 3
# [18] = male rats, single i.v. 0.75 mg/kg nicotine, day 15
# T2 sequence (P43681 29-627): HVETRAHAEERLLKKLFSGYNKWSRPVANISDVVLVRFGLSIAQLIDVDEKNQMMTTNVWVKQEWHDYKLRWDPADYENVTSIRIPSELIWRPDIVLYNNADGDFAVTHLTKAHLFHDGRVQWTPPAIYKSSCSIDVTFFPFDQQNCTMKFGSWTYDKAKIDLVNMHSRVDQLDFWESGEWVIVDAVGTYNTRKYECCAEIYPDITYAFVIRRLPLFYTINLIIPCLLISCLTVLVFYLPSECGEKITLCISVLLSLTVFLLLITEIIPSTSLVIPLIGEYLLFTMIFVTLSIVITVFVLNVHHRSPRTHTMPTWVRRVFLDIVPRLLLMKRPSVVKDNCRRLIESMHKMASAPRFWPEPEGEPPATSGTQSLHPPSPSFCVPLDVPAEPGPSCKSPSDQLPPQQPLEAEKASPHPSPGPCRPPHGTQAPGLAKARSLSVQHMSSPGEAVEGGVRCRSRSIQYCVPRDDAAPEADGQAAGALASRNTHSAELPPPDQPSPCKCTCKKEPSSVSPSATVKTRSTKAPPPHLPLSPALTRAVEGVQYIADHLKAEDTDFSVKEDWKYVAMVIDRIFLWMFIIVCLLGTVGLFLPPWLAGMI
# T2 sequence (P17787 26-502): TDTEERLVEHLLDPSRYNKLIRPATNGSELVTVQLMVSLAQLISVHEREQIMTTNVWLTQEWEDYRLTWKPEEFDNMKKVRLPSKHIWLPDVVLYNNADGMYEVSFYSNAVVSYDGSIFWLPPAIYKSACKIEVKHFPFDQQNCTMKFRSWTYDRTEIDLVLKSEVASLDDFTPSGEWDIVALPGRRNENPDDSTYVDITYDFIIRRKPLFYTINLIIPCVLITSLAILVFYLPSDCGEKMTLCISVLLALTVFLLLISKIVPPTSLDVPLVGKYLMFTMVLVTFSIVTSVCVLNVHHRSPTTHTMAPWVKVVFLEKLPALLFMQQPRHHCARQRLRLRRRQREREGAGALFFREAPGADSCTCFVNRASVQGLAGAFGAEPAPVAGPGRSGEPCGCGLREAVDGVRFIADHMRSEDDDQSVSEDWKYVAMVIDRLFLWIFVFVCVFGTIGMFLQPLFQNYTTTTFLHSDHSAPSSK
# nAChR α3/β4, sequence (P32297 32-505): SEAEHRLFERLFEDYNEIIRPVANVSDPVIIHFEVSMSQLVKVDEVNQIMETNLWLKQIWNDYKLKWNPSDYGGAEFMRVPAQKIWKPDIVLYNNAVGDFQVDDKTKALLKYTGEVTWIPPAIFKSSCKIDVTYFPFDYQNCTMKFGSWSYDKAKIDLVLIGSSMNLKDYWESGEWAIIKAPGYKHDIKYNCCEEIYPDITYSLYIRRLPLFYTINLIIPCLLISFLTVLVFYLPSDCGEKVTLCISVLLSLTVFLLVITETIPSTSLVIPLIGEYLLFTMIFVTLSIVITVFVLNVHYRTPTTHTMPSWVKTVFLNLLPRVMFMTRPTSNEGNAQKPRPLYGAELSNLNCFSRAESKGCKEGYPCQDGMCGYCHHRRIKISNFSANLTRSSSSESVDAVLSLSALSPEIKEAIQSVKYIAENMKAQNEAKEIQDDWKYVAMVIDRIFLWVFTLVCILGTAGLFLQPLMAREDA
# nAChR α3/β4, sequence (P30926 22-498): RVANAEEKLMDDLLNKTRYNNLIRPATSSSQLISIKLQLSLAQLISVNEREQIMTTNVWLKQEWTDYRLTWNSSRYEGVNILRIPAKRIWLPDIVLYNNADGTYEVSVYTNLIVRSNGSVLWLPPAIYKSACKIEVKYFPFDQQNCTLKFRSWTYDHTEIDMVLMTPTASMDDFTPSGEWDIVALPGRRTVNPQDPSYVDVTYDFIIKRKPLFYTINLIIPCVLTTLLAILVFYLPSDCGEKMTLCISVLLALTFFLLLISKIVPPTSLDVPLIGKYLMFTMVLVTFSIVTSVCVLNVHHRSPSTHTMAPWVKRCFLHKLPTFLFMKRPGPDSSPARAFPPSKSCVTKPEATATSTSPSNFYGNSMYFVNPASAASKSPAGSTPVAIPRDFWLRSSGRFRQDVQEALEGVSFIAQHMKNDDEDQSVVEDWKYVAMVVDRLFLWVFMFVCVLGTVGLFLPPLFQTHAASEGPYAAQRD
# T1 sequence (P36544 23-502): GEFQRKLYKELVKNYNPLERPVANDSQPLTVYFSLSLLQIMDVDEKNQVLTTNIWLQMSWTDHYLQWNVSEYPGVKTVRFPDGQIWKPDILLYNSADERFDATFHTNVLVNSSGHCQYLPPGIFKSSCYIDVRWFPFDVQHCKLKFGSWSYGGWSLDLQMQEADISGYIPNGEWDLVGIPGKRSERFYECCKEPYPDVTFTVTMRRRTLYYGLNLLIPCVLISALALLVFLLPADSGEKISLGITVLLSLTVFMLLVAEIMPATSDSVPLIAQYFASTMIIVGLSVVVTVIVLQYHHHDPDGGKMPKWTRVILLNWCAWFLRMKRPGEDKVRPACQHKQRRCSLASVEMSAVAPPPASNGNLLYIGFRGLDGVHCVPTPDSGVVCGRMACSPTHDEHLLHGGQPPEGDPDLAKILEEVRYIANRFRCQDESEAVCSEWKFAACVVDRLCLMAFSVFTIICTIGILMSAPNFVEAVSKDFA
smiles,measurement,setting,value
"CN1CCCC1c1cccnc1.O=C(O)C(O)C(O)C(=O)O (single isomer, unassigned; (-)) [Nicotine, (−) Nicotine hydrogen tartrate, reference compound]",ANISOCYTOSIS,[1]; [9],SLIGHT
same,BASOPHIL,[1]; [9],0%
same,EOSINOPHIL,[1]; [9],0%
same,POLYCHROMASIA,[1]; [9],SLIGHT
same,LYMPHOCYTE,[1]; [10],83% and 87% and 89%
same,MCHC,[1]; [10],34%
same,MONOCYTE,[1]; [10],2% and 1% and 0%
same,NEUTROPHILSEG,[1]; [10],15% and 12% and 11%
same,RE[…],[1]; [10],5.8% and 4.9% and 4.5%
same,ANISOCYTOSIS,[1]; [11],SLIGHT
same,BASOPHIL,[1]; [11],0%
same,EOSINOPHIL,[1]; [11],0%
same,POLYCHROMASIA,[1]; [11],SLIGHT
same,HCT,[1]; [12],50%
same,LYMPHOCYTE,[1]; [12],86% and 87% and 80% and 90%
same,MONOCYTE,[1]; [12],2% (3×) and 4%
same,NEUTROPHILSEG,[1]; [12],12% and 11% and 16% and 8%
same,RE[…],[1]; [12],4.3% and 4.8% and 5.6% and 6.1%
same,BASOPHIL,[1]; [13],0.0%
same,EOSINOPHIL,[1]; [13],0.0%
same,HGB,[1]; [13],16.0 g/dL
same,MONOCYTE,[1]; [13],1.0%
same,PLATELET COUNT,[1]; [13],1.363e+06 µL⁻¹
same,RBC,[1]; [13],8e+06 µL⁻¹
same,RE[…],[1]; [13],5.1%
same,WBC,[1]; [13],10200 µL⁻¹
same,BASOPHIL,[1]; [14],0.0%
same,EOSINOPHIL,[1]; [14],0.0%
same,MCHC,[1]; [14],34.0%
same,MONOCYTE,[1]; [14],2.5%
same,PLATELET COUNT,[1]; [14],1.3558e+06 µL⁻¹
same,RBC,[1]; [14],7.6e+06 µL⁻¹
same,RE[…],[1]; [14],5.2%
same,WBC,[1]; [14],11400 µL⁻¹
same,mean corpuscular volume (MCV) and mean corpuscular hemoglobin (MCH) vs control,"[1]; female rats, […] anatabine, 0.75 mg/kg nicotine i.v.","small, but statistically significant decreases"
same,aPTT vs vehicle control,"[2]; male and female rats, nicotine 0.75 mg/kg",significantly lower relative to the vehicle control group
same,ACTIVE PARTIAL THROMBOPLASTIN TIME,"[2]; female rats, individual animals E6, E9",15 s
same,ACTIVE PARTIAL THROMBOPLASTIN TIME,"[2]; male rats, individual animals E1, E2, E3, E5",15 s
same,agonist activity,[3],showed agonist activity
same,physical signs post dose,[4],experienced tremors immediately post dose; also recorded: experienced labored breathing
same,Average Daily Food Consumption per Rat,"[5]; Female, day 6, cages 1 and 2, tartrate",20.0 grams
same,Average Daily Food Consumption per Rat,"[5]; Males, day 8, cages 1 and 2, tartrate",24.0 grams
same,day 13 B.W.,"[5]; individual male rats, single i.v. 0.75 mg/kg, tartrate, 0.75 mg/kg",330 g
same,B.W. day 6,"[5]; nicotine 0.75 mg/kg single i.v. dose, day 6, male rats (individual animals), tartrate",270 g
same,Mean weight increase by day 14,[5]; female rats,40.8 g
same,Mean weight increase by day 14,"[5]; male rats, listed as nicotine, tartrate, 0.75 mg/kg",significantly lower than the controls
same,Mean weight increase by day 14,"[5]; male rats, tartrate, 0.75 mg/kg",98.5 g
same,potentiation,[6],Neither nicotine nor anatabine potentiated
same,inhibition,"[7]; 100 μM Ach + 0.3 μM epibatidine, not concentration-dependent, IC50s could not be determined",inhibited receptor activity
same,Normalized % Potentiation,[7]; test conc 0.3 μM,−46.00%
same,Normalized % Potentiation,[7]; test conc 1 μM,−46.34%
same,Normalized % Potentiation,[7]; test conc 3 μM,−40.54%
same,Normalized % Potentiation,[7]; test conc 10 μM,−42.16%
same,Normalized % Potentiation,[7]; test conc 30 μM,−43.70%
same,Normalized % Potentiation,[7]; test conc 100 μM,−43.40%
same,Normalized % Potentiation,[7]; test conc 300 μM,−34.56%
same,Normalized % Potentiation,[7]; test conc 1000 μM,−39.66%
same,Tissue Collection Weights: Heart,[8]; [15],0.83 g
same,Tissue Collection Weights: Lungs,[8]; [15],1.20 g
same,Tissue Collection Weights: Ovaries/uterus,[8]; [15],0.92 g
same,Tissue Collection Weights: Small intestine,[8]; [15],0.41 g and 0.40 g and 0.28 g
same,Tissue Collection Weights: Spleen,[8]; [15],0.46 g (2×) and 0.76 g
same,Tissue Collection Weights: Thymus,[8]; [15],0.54 g and 0.48 g (2×)
same,Tissue Collection Weights: Brain,[8]; [16],1.90 g
same,Tissue Collection Weights: Heart,[8]; [16],1.20 g
same,Tissue Collection Weights: Prostate,[8]; [16],0.41 g and 0.28 g (2×) and 0.45 g
same,Tissue Collection Weights: Small intestine,[8]; [16],0.71 g and 0.56 g and 0.53 g and 0.40 g
same,Tissue Collection Weights: Spleen,[8]; [16],0.81 g and 0.62 g and 0.78 g and 0.86 g
same,Tissue Collection Weights: Thymus,[8]; [16],0.54 g and 0.46 g and 0.56 g and 0.76 g
same,"Organ Weight Brain, Mean",[8]; [17],1.86 g
same,"Organ Weight Heart, Mean",[8]; [17],0.99 g
same,"Organ Weight Kidneys, Mean",[8]; [17],2.31 g
same,"Organ Weight Liver, Mean",[8]; [17],9.59 g
same,"Organ Weight Lungs, Mean",[8]; [17],1.32 g
same,"Organ Weight Ovaries/uteris, Mean",[8]; [17],1.28 g
same,"Organ Weight, Small intestine (mean)",[8]; [17],0.36 g
same,"Organ Weight, Spleen (mean)",[8]; [17],0.56 g
same,"Organ Weight, Thymus (mean)",[8]; [17],0.50 g
same,"Organ Weight, Prostate (mean)",[8]; [18],0.36 g
same,"Organ Weight, Small intestine (mean)",[8]; [18],0.55 g
same,"Organ Weight, Spleen (mean)",[8]; [18],0.77 g
same,"Organ Weight, Thymus (mean)",[8]; [18],0.58 g
same,organ weights vs vehicle controls,"[8]; nicotine 0.75 mg/kg, heart, liver and kidneys in males, thymus and heart in females",significantly lower than those of the corresponding vehicle controls
